According to ChEMBL document CHEMBL1201862, “PubChem BioAssay data set” (2004):
Where a name gives a salt, the structure may show the parent alone. The source made the active and inactive calls.

What was measured:
[1] = HEp-2 cell cytotoxicity, dose response, cytotoxicity control for RSV inhibitor project, HTS (AID 2410); assay type: functional; conditions: human respiratory syncytial virus
Vero [2] = experiment: cells; assay type: functional, cell-based; conditions: Chlorocebus sabaeus
Vero [3] = experiment: cells; assay type: functional; conditions: Chlorocebus sabaeus
[4] = cytotoxicity in HPDE-C7 cells, cell-based, fluorescence, HTS (AID 430); assay type: functional; conditions: Homo sapiens
[5] = cytotoxicity in KRAS-transformed pancreatic duct cells, primary screen, cell-based, fluorescence, HTS (AID 431); assay type: functional; conditions: Homo sapiens;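 note: cell line used: HPDE-C7K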
[6] = A cytotoxicity screen of small molecule inhibitors of the PhoP region in Salmonella typhi identified in the primary screen. [Related pubchem assays: 1850, 1864, 1985 ]; assay type: functional
Leucine aminopeptidase = biological target: T1, Leucine aminopeptidase (Plasmodium falciparum 3D7, UniProt Q8IL11); experiment: P. falciparum M17LAP inhibitors, primary screen, biochemical, fluorogenic H-Leu-NHMec substrate, 1536-well (AID 1619); assay type: functional
T1 sequence (Q8IL11 whole entry): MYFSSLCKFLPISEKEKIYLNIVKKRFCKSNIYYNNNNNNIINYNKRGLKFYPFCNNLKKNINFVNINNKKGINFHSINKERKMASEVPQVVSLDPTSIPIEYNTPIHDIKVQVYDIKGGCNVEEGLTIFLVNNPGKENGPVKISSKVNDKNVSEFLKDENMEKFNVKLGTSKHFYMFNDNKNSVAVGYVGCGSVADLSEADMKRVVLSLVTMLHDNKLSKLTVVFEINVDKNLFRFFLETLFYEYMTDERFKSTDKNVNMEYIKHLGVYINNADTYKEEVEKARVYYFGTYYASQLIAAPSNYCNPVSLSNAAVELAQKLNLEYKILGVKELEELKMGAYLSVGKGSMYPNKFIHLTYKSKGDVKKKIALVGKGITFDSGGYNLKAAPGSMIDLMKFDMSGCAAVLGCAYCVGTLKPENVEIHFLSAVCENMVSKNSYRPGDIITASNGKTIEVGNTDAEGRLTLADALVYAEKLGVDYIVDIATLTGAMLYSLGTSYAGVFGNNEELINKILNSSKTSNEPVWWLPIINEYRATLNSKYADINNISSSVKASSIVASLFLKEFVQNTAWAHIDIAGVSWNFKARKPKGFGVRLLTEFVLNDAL

Cytochrome P450 2C19 = Cytochrome P450 2C19 (Homo sapiens, UniProt P33261); experiment: Cytochrome panel assay with activity outcomes. Panel member name: p450-cyp2c19 Compounds with AC50 equal or less than 10 uM are considered active; assay type: functional; conditions: read-out: AC50
Cytochrome P450 2C19, sequence (P33261 whole entry): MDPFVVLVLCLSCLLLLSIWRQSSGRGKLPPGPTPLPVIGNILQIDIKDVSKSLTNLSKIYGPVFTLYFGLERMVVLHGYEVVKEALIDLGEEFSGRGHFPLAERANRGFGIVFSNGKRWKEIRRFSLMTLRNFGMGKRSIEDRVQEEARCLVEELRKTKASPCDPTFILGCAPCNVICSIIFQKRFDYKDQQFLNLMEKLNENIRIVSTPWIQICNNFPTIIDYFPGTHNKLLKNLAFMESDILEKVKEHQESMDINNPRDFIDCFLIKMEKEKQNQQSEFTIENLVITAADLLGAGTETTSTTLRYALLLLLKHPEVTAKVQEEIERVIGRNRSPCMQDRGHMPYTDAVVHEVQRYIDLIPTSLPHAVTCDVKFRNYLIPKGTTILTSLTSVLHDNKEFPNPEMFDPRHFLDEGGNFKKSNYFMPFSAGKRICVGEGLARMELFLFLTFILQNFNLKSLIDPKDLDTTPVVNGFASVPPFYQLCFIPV

Cytochrome P450 2D6 = Cytochrome P450 2D6 (Homo sapiens, UniProt P10635);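 note: CYP2D6 member of a cytochrome P450 panel assay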
Cytochrome P450 2D6, sequence (P10635 whole entry): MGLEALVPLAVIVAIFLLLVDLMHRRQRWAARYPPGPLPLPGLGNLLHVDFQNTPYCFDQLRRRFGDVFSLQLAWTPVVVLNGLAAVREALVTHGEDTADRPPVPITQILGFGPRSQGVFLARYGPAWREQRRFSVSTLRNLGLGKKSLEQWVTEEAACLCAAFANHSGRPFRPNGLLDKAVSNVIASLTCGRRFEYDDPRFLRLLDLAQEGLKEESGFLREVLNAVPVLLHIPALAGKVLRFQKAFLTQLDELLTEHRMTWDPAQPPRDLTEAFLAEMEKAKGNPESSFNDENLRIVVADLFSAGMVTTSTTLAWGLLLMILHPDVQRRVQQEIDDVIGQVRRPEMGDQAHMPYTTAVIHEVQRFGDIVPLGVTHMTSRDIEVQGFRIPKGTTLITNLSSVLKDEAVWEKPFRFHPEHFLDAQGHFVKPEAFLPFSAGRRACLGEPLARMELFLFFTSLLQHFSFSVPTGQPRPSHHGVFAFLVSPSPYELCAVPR

[7] = biological target: Glyceraldehyde-3-phosphate dehydrogenase (Homo sapiens, UniProt P04406)
Glyceraldehyde-3-phosphate dehydrogenase, sequence (P04406 whole entry): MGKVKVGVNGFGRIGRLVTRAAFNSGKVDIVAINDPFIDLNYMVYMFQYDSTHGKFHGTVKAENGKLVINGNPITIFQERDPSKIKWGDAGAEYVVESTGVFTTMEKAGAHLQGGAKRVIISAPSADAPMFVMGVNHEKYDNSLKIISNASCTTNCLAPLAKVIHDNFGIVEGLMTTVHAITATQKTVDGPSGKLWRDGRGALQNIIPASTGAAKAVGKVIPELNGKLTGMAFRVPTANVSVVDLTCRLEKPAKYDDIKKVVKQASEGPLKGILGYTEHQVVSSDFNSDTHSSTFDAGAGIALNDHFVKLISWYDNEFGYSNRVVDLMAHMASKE

[8] = P. falciparum Dd2 growth inhibitors, dose response, SYBR Green, cherry-picked samples (AID 1159567); assay type: functional, cell-based
[9] = test system: Streptococcus sp. 'group A'; experiment: growth inhibition of control SK(-) GAS strain, dose response, counter-screen for streptokinase expression inhibitor project, luminescence, kanamycin, BacTiterGlo, confirmation (AID 1900); assay type: functional, organism-based
Streptokinase A = biological target: T2, Streptokinase A (Streptococcus pyogenes serotype M1, UniProt P10520); experiment: S. pyogenes streptokinase expression inhibitors, potency, dose response, plasminogen activation absorbance, OD405 (AID 1914); assay type: functional, Streptococcus pyogenes M1 GAS;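 note: secreted streptokinase activity via plasminogen activation per viability signal from cell pellet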
T2 sequence (P10520 whole entry): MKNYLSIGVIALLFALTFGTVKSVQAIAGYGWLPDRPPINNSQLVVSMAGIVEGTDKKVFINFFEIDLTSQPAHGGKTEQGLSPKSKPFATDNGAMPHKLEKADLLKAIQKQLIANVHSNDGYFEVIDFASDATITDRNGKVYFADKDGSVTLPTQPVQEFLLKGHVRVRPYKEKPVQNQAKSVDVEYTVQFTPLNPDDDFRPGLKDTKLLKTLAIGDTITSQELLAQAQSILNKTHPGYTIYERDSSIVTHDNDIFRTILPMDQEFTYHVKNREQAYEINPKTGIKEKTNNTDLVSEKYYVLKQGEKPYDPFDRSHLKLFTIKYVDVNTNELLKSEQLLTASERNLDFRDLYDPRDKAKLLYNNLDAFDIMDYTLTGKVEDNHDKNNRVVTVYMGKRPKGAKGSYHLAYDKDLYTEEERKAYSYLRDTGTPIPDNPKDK

Streptococcus = experiment: Group A Streptococcus viability loss, dose response, counter-screen for streptokinase expression inhibitor project, luminescence, BacTiterGlo (AID 1915); assay type: functional, organism-based;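 note: potency for reduction of bacterial viability or growth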
[10] = inhibitors of firefly luciferase expression or activity, dose response, H4 neuroglioma cells, luminescence (AID 1990); assay type: functional, cell-based
[11] = Luminescence Cell-Based Dose Response HTS to Identify Inhibitors of 5'UTR Stem-Loop Driven Prion Protein mRNA Translation in H4 Neuroglioblastoma Cells. [Related pubchem assays: 1827 (Project Summary), 1813 (Primary HTS)]; assay type: functional
[12] = inhibitors of SNCA 5'UTR-driven reporter translation, confirmation, H4 neuroglioma cells, luminescence (AID 1988); assay type: functional, cell-based
[13] = growth suppression of PTEN-null colon cells, dose response, cell-based, HCT116 PTEN knockout (AID 1047); assay type: functional;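 note: HCT116 colon tumor cells with PTEN knocked out; cells exposed to compound for 60 hours before readout; potency for loss of cell viability measured by luminescence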
[14] = growth suppression of beta-catenin-knockout colon cells, dose response, cell-based, HCT116, human colon tumor (AID 1045); assay type: functional;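 note: HCT116 colon tumor cells with beta catenin knocked out; cells exposed to compound for 60 hours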
[15] = biological target: T3, DNA repair protein RAD52 homolog (Homo sapiens, UniProt P43351); assay type: functional, biochemical
T3 sequence (P43351 whole entry): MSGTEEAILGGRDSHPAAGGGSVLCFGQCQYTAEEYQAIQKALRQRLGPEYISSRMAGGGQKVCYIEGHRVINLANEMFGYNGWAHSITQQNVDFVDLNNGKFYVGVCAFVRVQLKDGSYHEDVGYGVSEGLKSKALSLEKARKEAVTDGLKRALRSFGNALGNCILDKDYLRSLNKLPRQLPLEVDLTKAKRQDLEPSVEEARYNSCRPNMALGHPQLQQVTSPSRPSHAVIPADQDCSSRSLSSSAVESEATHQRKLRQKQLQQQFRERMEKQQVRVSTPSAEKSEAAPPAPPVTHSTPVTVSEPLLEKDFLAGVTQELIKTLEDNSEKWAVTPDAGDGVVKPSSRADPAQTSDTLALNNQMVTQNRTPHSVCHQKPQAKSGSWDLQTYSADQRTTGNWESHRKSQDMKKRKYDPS

[16] = Luminescence Cell-Based Dose Retest to Confirm Inhibitors of Cancer Stem Cells. [Related pubchem assays (depositor defined):AID2717, AID2721]; assay type: functional; conditions: Homo sapiens
[17] = Luminescence Cell-Based Dose Response HTS to Identify Activators of Luciferase Translation or Activity in H4 […] Cells. [Related pubchem assays: 1829 (Project Summary), 1814 (Primary HTS)]; assay type: functional
H4 = experiment: Luminescence Cell-Based Dose Response HTS to Identify Activators of 5'UTR Stem-Loop Driven Prion Protein mRNA Translation in H4 Neuroglioblastoma Cells. [Related pubchem assays: 1829 (Project Summary), 1814 (Primary HTS)]; assay type: functional; conditions: Homo sapiens
[18] = inhibitors of intracellular T. cruzi replication, confirmation, NIH3T3 host cells, beta-gal luminescence (AID 2044); assay type: functional, cell-based;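 note: intracellular parasites grown in NIH/3T3 mouse fibroblasts as host cells; luminescent beta-galactosidase reporter signal from transgenic T. cruzi replicating inside host cells; inhibitors lower the luminescence signal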
[19] = cytotoxicity toward NIH3T3 fibroblasts, dose response, counter-screen, cell-based, ATP luminescence, mouse fibroblasts (AID 2010); assay type: functional;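 note: cells exposed to compound for about 90 hours before reading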
[20] = Luminescence-based cell-based high throughput dose response assay to identify activators of the DAF-12 from the parasite S. stercoralis (ssDAF-12).; assay type: functional
[21] = biological target: T4, Oxysterols receptor LXR-beta (Homo sapiens, UniProt P55055); experiment: LXR agonists, Gal4 luciferase reporter, dose response, counter-screen for ssDAF-12 agonist project, cell-based, luminescence, HEK293, S. stercoralis campaign (AID 720737); assay type: functional; conditions: read-out: IC50 (the source's name)
T4 sequence (P55055 whole entry): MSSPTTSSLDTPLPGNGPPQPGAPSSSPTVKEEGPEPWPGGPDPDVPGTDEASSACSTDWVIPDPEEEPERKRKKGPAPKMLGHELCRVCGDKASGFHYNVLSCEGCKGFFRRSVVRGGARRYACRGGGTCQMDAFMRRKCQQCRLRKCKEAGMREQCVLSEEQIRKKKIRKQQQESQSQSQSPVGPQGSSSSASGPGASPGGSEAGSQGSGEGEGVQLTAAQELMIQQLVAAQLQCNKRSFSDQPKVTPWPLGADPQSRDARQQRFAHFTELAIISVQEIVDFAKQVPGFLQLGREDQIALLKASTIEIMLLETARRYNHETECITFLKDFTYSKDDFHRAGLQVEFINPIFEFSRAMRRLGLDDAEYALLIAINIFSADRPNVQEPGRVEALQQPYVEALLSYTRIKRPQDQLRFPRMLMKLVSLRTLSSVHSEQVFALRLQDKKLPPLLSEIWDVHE

SMILES: CC(=O)/C(C#N)=C1\NC(=O)C(Cc2ccccc2C)S1 (stereo unspecified)
- CC50 [1]: 5.95 µM (active)
- IC50 (Vero [2]): 5.5 µM (active)
- CC50 (Vero [3]): > 25 µM (active)
- IC50 (cells): 2.54 µM (active)

SMILES: Cc1c(NC(=O)CN2C(=O)NC3(CCCCC3C)C2=O)cccc1[N+](=O)[O-] (stereo unspecified)
- IC50 (cells): 11.6 µM (active)

SMILES: CCOc1ccc(N(Cc2cc3cc(OC)ccc3nc2O)S(C)(=O)=O)cc1
- EC50 [4]: > 20 µM (not active)
- EC50 [5]: > 20 µM (not active)

SMILES: COc1ccc(N(CC(=O)N2c3ccccc3CC2C)S(=O)(=O)c2c(C)noc2C)cc1 (stereo unspecified)
- EC50 [6]: > 50 µM (active)

SMILES: CCc1nnc(NS(=O)(=O)c2ccc(/N=C/c3c(C)nn(-c4ccc(C)cc4)c3O)cc2)s1
- IC50 (Leucine aminopeptidase): 8.11 µM (active)
- AC50 (Cytochrome P450 2C19): 5.01 µM (inconclusive)
- AC50 (Cytochrome P450 2D6): 5.62 µM (inconclusive)

SMILES: O=C(O)c1cc(N2C(=O)C3C4c5ccccc5C(c5ccccc54)C3C2=O)ccc1O (stereo unspecified)
- IC50 [7]: > 100 µM (not active)

SMILES: C[C@@H]1CN([C@@H](C)CO)C(=O)c2c(c3ccccc3n2C)-c2ccccc2CO[C@@H]1CN(C)C(=O)[C@H](C)c1ccccc1
- AC50 [8]: 3.29 µM (active)

SMILES: CCCCC[C@H](O)/C=C/[C@H]1C=CC(=O)[C@@H]1C/C=C\CCCC(=O)O [PROSTAGLANDIN A2]
- EC50 [4]: > 20 µM (not active)
- EC50 [5]: > 20 µM (not active)

SMILES: CC(=O)/C(C#N)=C1\NC(=O)C(Cc2ccccc2Cl)S1 (stereo unspecified)
- IC50 (Leucine aminopeptidase): 26.6 µM (active)
- IC50 (Vero [2]): 2.83 µM (active)
- CC50 (Vero [3]): 18.9 µM (active)

SMILES: Oc1cc(O)c2sc3nc(-c4cccnc4)cc(C(F)(F)F)c3c2n1
- IC50 (Leucine aminopeptidase): 58.2 µM (active)

SMILES: O=C(Cc1cccs1)NNC(=S)NC(=O)c1ccccc1
- IC50 (Leucine aminopeptidase): 30 µM (active)
- EC50 [9]: 4.36 µM (active)
- EC50 (Streptokinase A): > 150 µM (not active)
- EC50 (Streptococcus): 16.9 µM (active)

SMILES: O=C(C1CCOCC1)N1[C@H](CO)[C@@H](c2ccccc2)C12CN(Cc1cccc(Cl)c1)C2
- AC50 [8]: 5.41 µM (active)

SMILES: COc1cccc(NC(=O)N2CCCC(C(=O)Nc3ccccc3OC)C2)c1 (stereo unspecified)
- EC50 [6]: > 50 µM (active)

SMILES: CCS(=O)(=O)N1CCCCN2[C@H](CO)[C@@H](c3ccc(-c4cccc(C#N)c4)cc3)[C@@H]2C1
- AC50 [8]: 9.04 µM (active)

SMILES: CSc1ccc2c(c1)N(CCC1CCCCN1C)c1ccccc1S2 (stereo unspecified) [THIORIDAZINE HYDROCHLORIDE]
- EC50 [10]: > 120 µM (not active)
- EC50 [11]: > 60 µM (not active)
- EC50 [12]: > 120 µM (not active)
- EC50 [4]: 8.18 µM (active)
- EC50 [5]: 3.43 µM (active)
- EC50 [13]: 11.1 µM (active)
- EC50 [14]: 9.28 µM (active)
- AC50 [15]: 13.7 µM (active)

SMILES: Cn1c(C(=O)NCc2ccccc2)cc2oc3ccccc3c21
- CC50 [1]: 28.9 µM (active)
- IC50 (Vero [2]): 1.87 µM (active)
- CC50 (Vero [3]): > 25 µM (active)
- IC50 (cells): 7.04 µM (active)

SMILES: CSc1ncccc1C(=O)Nc1nc(C(C)(C)C)cs1
- CC50 [1]: 49.6 µM (active)
- IC50 (cells): 4.75 µM (active)

SMILES: N#CC1=C(SCC(=O)c2ccc(Cl)cc2)N=C2CCCC(O)=C2C1c1ccco1 (stereo unspecified)
- EC50 [4]: 7.64 µM (active)
- EC50 [5]: 7.7 µM (active)
- AC50 [16]: 2.64 µM (active)

SMILES: COc1ccc(C(=O)N/C(=C/c2cccs2)c2nc3ccccc3[nH]2)cc1OC
- IC50 (cells): 22.6 µM (active)

SMILES: CN1c2ccsc2/C(=N/Nc2ccc(F)cc2)CS1(=O)=O
- EC50 [17]: 54.8 µM (active)
- EC50 (H4): 49.1 µM (active)
- EC50 [18]: 3.22 µM (active)
- EC50 [19]: > 60 µM (not active)
- IC50 [20]: > 67.5 µM (inactive)
- EC50 [21]: > 67.5 µM (inactive)

SMILES: Cc1cc(C)c(CSc2ncnc3[nH]cnc23)c(C)c1
- EC50 [6]: > 50 µM (active)
